Reference: patent publication US9121846B2, “Daikenchuto bioassay method and quality management method using same” (TSUMURA & Co., priority 2010, dated 2015)

Tested on: Rat pancreatic cancer cell line RIN-14B
Assay: Serotonin (5-HT) release test in cultured serotonin-producing cells, 5-HT measured by EIA
Assay type: cell-based
Details: positive control, final concentration 100 μmol/L, 1 hour culture
Method: The crude drug mixture of the proportions presented in Table 1 was extracted by heating at 100° C. for 1 hour with purified water used in 10 times the amount of the mixture weight, and the extract was processed into a powder to obtain a Koi-free Daikenchuto extract powder. The Koi-free Daikenchuto extract powder was used to prepare a 100 mg/mL DMSO suspension, and the suspension was mixed with an 88.8 mg/mL maltose aqueous solution at a 1:9 ratio to prepare a […] Daikenchuto solution. The solution was diluted with 0.1% BSA-Hanks buffer* to make the concentration 9 mg/mL and subjected to 15-min sonication to prepare a Daikenchuto test sample.
Separately, a DMSO solution of 100 mmol/L AITC was prepared as a positive control sample by adding allyl isothiocyanate (AITC; Wako Pure Chemical Industries, Ltd.) to DMSO. […]
The plate was washed three times with a washing buffer attached to the kit (300 μL/well) to remove the free components. […] After confirming the development of color, the reaction was stopped by adding a reaction stopper ([…] and the absorbance at 405 nm was measured. The results are presented in FIG. 1.

## C=CCN=C=S [AITC, allyl isothiocyanate]
  5-HT concentration compared with the control: evidently higher
